Entries after “also recorded” stand apart in the source; their conditions may differ.
What was measured:
[1] = test system: C57Bl/6 mice subjected to moderate-level traumatic brain injury; assay: Beam walk test after controlled cortical impact traumatic brain injury; type: in vivo, mouse; settings: NMN 500 mg/kg I.P. at 1 hour post-injury, 7 days post-injury, p<0.001
Description: FIGS. 9A-9B show traumatic brain injury-induced deficits in sensorimotor function and cognition are ameliorated by nicotinamide mononucleotide treatment. FIG. 9A: Fine motor coordination deficits were quantified using a beam walk test in C57Bl/6 mice subjected to moderate-level traumatic brain injury and treated with nicotinamide mononucleotide (500 mg/kg, I.P.) or equal volume of vehicle at 1 hour post-injury. Hindlimb foot placement was recorded up to 7 days post-injury and the number of foot faults recorded from 50 steps. Naïve C57Bl/6 mice served as a control group. […] Analysis was by repeated measures one-way ANOVA, followed by post-hoc adjustments using Student-Newman-Keuls test. Mean ±S.E.M.; n=5/group. FIG. 9B: Cognitive performance was analyzed by measuring the number of anti-clockwise and clockwise rotations of traumatic brain injury mice in an open field test performed at 7 days post-injury.
In a clinically relevant model of traumatic brain injury, controlled cortical impact (CCI) (Fox et al. 1998), was induced in C57Bl/6 mice and these animals were followed for up to 1 year post-injury to assess post-traumatic tissue loss and neurodegeneration. […] One group was evaluated for changes between 24 h and 3 months post-injury; a second group was used to compare changes in TBI-induced lesion volume between 6 and 12 months. […]

[2] = test system: neurons in the CA1 sector of the hippocampus; assay: Forebrain ischemia model, histological outcome in the CA1 sector of the hippocampus; type: in vivo, mouse
Description: FIGS. 1A-1B show effects of nicotinamide mononucleotide administration. FIG. 1A: Fluoro-Jade B staining of the hippocampal formation of mouse brain subjected to 10 min forebrain ischemia and 5 days of recovery. The middle panels represent enlarged views of the CA1 sector, the CA2-3 border, and DG. Note the high number of degenerating, Fluoro-Jade B positive cells in the CA1 pyramidal cell layer. There are only a few cells stained in the CA3 region, and some cells are stained in the DG. […] Open bars represent average values.
In all groups male, 3 months old animals were used.
C57BL/6 male mice, weighing 20-25 g were used. Mice were fasted overnight with free access to water ad libitum. Animals were anesthetized with 3.5% isoflurane in 70% N2O and 30% O2 and the trachea were intubated with a 20-guage intravenous catheter. Anesthesia was maintained using 1.5% isoflurane in N2O:O2 (70:30) and the lungs were mechanically ventilated at a rate of 120 breaths per min and the tidal volume was adjusted to give normal physiological values of blood gases (34-38 mm Hg pCO2 and […] of pO2). The common carotid arteries was isolated via a neck incision and encircled with loose ligatures for later clamping. Rectal temperature was routinely monitored before, during and after ischemia. A subcutaneous needle thermistor was placed adjacent to the skull. The body and head temperature was maintained at 37.0±0.5° C. by a homeothermic-heating pad and heating lamp.
Two minutes before the common carotid arteries are clamped, the isoflurane concentration will be increased to 5%. […]
Every sixth […] section located between 1.7 and 2.6 mm posterior to bregma (0 mm, 180 mm, 360 mm, 540 mm, 720 mm, 900 mm; 6 sections), which comprises the dorsal hippocampus, was stained with IBA1 antiserum and cresyl violet and used for estimating the total microglial number with distinct morphology and neuronal numbers of normal and dying neurons in the different hippocampal regions. […] Parallel sections were immuno-stained with GFAP antibody and the number of distinct astrocytes were counted in the same hippocampal area. GFAP-immunoreactive cells were classified into three categories: normal, moderate, and intensely activated astrocytes, based on morphological characteristics as assessed by visual inspection (23).
Quantitative analysis is performed on a computer-assisted image analysis system consisting of a Nikon Eclipse 800 photomicroscope equipped with a computer-controlled motorized stage, and a computer running Stereolnvestigator program, a custom-designed morphology and stereology software (27). Cell numbers were quantified according to the optical fractionator method. […]
For quantification of uninjured cells within the CA1 sector of the hippocampus an unbiased stereological technique was used (27). […]

## NC(=O)c1ccc[n+]([C@@H]2O[C@H](COP(=O)([O-])O)[C@@H](O)[C@H]2O)c1 [nicotinamide mononucleotide]
[1]
  fine motor coordination (beam walk foot faults) vs vehicle-treated TBI mice: significant improvement in motor performance
[1]; listed as NMN
  fine motor coordination (beam walk foot faults) vs vehicle-treated TBI mice: significantly reduced deficits in fine motor coordination
[2]; 10 min forebrain ischemia, NMN 500 mg/kg at 1 hour of reperfusion, 5 days of recovery
  ischemic cell death / brain damage in the CA1 sector of the hippocampus: almost completely ameliorated; also recorded: markedly ameliorates ischemic brain damage; also recorded: almost completely eliminate the ischemic brain damage; also recorded: dramatic amelioration of cell death; also recorded: significant protection
[2]; 10 min forebrain ischemia, NMN 500 mg/kg at 1 hour of reperfusion, 5 days of recovery, listed as NMN
  ischemic cell death / brain damage in the CA1 sector of the hippocampus: Dramatic reduction of ischemia-induced brain damage
[2]; 10 min forebrain ischemia, NMN 500 mg/kg at 1 hour of reperfusion, 5 days of recovery, n=6
  animals that did not show any injured neurons: Five of 6
[2]; 10 min global cerebral ischemia, NMN 1000 mg/kg IP at start of reperfusion, 6 days of recovery
  percentage of uninjured neurons in the CA1 sector vs vehicle-treated wild type mice: significantly greater

Reference: patent US20120328526A1, “Modulation of Nad+ Activity in Neuropathophysiological Conditions and Uses Thereof” (University of Maryland, Baltimore, priority 2011, published 2012)
